One assay concerns the target CRBN protein (Homo sapiens, UniProt Q96SW2). Kind of assay: Binding activity to E3 ubiquitin ligase CRBN (HTRF competitive binding kit, Thalidomide-Red). The source says: Binding activity of the E3 ligase inhibitor disclosed in the present invention to E3 ubiquitin ligase CRBN
CRBN binding activity test kit (CEREBLON BINDING KITS (PE, 64BD CRBN PEG).
The detection is based on homogeneous time-resolved fluorescence (HTRF) technology.
This kit uses a europium-labeled GST antibody (GST Eu Cryptate Antibody) as the donor and XL665-labeled thalidomide (Thalidomide-Red reagent) as the receptor. The donor binds to the GST-tagged CRBN protein.
The donor and receptor were each diluted 50-fold using the buffer provided in the kit (PROTAC binding buffer 1). The CRBN protein was diluted 45-fold. An 8mM solution of the compound disclosed herein was diluted 10-fold using the diluent provided in the kit (1X diluent), followed by 7 successive 5-fold serial dilutions of the resulting solution.
The ratio of the acceptor and donor emission signals was calculated for each individual well.
IC50 values was calculated based on compound concentration, Ratio, and coefficient of variation using GraphPad Prism.
For orientation: In TR-FRET formats the signal depends on donor and acceptor labels being close together.

In assay [1] the target is T1, SMARCA2 (Homo sapiens, UniProt P51531). Nature of the assay: SMARCA2 degradation in HeLa cells (Western blot). The format is cell-based. Also noted: endogenous in cells. The conditions noted are these: 4 hours. On the procedure: (§1) Test Example 10 Degradation rate (%) of SMARCA2/4 by the PROTAC compounds of the present invention in HeLa cells and SW1573 cells
HeLa cells were seeded at 1.2 x 10^5 cells/well in a 6-well plate. 2 mL of EMEM medium supplemented with 10% FBS was added to each well and the culture dish was incubated overnight to allow the cells to adhere. The next day, 1 µL of 160 µM and 1 µL of 2 µM compound were added to the corresponding wells, resulting in final compound concentrations of 80 nM and 1 nM, respectively, and a final DMSO concentration of 0.05%. The cells were returned to the incubator and incubated for another 4 hours.
(§2) After 4 hours, cells were harvested, the culture medium was aspirated, and the cells were rinsed once with 1 mL/well PBS. The PBS was aspirated, and 40 µL/well of RIPA lysis buffer containing protease inhibitors was added. After lysis and centrifugation, total protein extracts were obtained, and protein concentration in the extracts was determined by BCA assay. Protein electrophoresis was performed by SDS-PAGE, followed by constant voltage electrophoresis at 100 V for 60 minutes and the protein was then transferred to a PVDF membrane. The PVDF membrane was blocked in 5% skim milk powder for 1 hour at room temperature. Primary antibodies (SMARCA2: CST#11966S, SMARCA4: CST#49360S, GAPDH: CST#5174S) were added and incubated overnight at 4°C. After washing the membrane, secondary antibodies were added and incubated at room temperature for 1 hour (protected from the light). After washing, the membrane was exposed using an Odyssey luminometer. Grayscale analysis of bands was performed using Image Studio software.
(§3) The degradation rate (%) of SMARCA2/4 by the PROTAC compounds of the present invention in HeLa cells and SW1573 cells is shown in Table 10. Table 10 Degradation rate of SMARCA2/4 by PROTAC compounds of the present invention in HeLa cells and SW1573 cells (%)

The target in assay [2] is T1, SMARCA2. Nature of the assay: SMARCA2 degradation in SW1573 cells (Western blot). The format is cell-based. Also noted: endogenous in cells; host or cells: SW1573. The conditions noted are these: 24 hours. On the procedure: as §1
SW1573 cells were seeded at 2x10^5Cells/well in a 6-well plate. 2 mL of EMEM medium supplemented with 10% FBS was added to each well and was incubated overnight to allow cell attachment. The next day, 1 µL of 160 µM and 1 µL of 2 µM compound were added to the corresponding wells for treatment, resulting in final compound concentrations of 80 nM and 1 nM, respectively, and a final DMSO concentration of 0.05%. The cells were returned to the incubator and incubated for another 24 hours.
as §2, with “After 24” for “After 4”, “the” for “the culture”
as §3
Background: A western blot detects proteins with antibodies after separation by electrophoresis.

Setting [3] is: competition with XL665-labeled thalidomide for GST-tagged CRBN protein, HTRF, 3 hours at room temperature, read-out: IC50.

Results on 18 compounds are retold here after patent publication EP4722219A1 (Gan & Lee Pharmaceuticals Co., Ltd., priority 2023, dated 2024).

Read-outs that look alike come from different tables or passages of the source.

Consider `CN(c1ccc2c(c1)COC[C@H]1CNCCN21)C1CCC(=O)NC1=O` (stereo partly shown) [Compound C14], for which, on CRBN protein (setting [3]), the IC50 – broadly, the point on the concentration scale where inhibition reaches its midpoint – worked out at 1850 nM.

`CN(c1ccc2c(c1)OCC21CCNCC1)C1CCC(=O)NC1=O` (stereo not shown) [Compound C15, 3-(Methyl(2H-spiro[benzofuran-3,4'-piperidine]-6-yl)amino)piperidine-2,6-dione]: at CRBN protein (setting [3]), the IC50 amounted to 720 nM.

For the compound `O=C1CCC(Nc2ccc3c(c2)OC[C@@H]2CNCCN32)C(=O)N1` (stereo partly drawn) [Compound C16, 3-(((S)-1,2,3,4,4a,5-hexahydrobenzo[b]pyrazine[1,2-d][1,4]oxazine-8-yl)amino)piperidine-2,6-dione], the IC50 at CRBN protein (setting [3]) is 2160 nM.

Regarding `Cn1c(=O)n(C2CCC(=O)NC2=O)c2ccc3c(c21)OCC31CCNCC1` (stereo not shown) [Compound D2, 3-(1-Methyl-2-oxo-1,2-dihydro-3H,7H-spiro[benzofuro[6,7-d]imidazole-6,4'-piperidine]-3-yl)piperidine-2,6-dione], the IC50 at CRBN protein (setting [3]) came to 28 nM.

With `O=C1CCC(n2c(=O)n3c4c(cccc42)NCC3)C(=O)N1` (stereo not shown) [Compound D3, 3-(2-oxo-5,6-dihydro-4H-imidazo[1,5,4-de]quinoxalin-1(2H)-yl)piperidine-2,6-dione], the IC50 at CRBN protein (setting [3]) stood at 210 nM.

With `Cn1c(=O)n(C2CCC(=O)NC2=O)c2ccc3c(c21)C1(CCNCC1)CO3` (stereo not shown) [Compound D4, 3-(1-Methyl-2-oxo-1,2-dihydro-3H,7H-spiro[benzofuran[4,5-d]imidazole-8,4'-piperidine]-3-yl)piperidine-2,6-dione], the IC50 on CRBN protein was determined as 2300 nM.

For the compound `Cn1c(=O)n(C2CCC(=O)NC2=O)c2cc3c(cc21)OC1(CCNCC1)CC3` (stereo not shown) [Compound D5], the IC50 on CRBN protein came to 660 nM.

As to `Cn1c(=O)n(C2CCC(=O)NC2=O)c2ccc3c(c21)OC[C@H]1CNCCN31` (stereo partly shown) [Compound D7], the IC50 on CRBN protein (setting [3]) came out at 400 nM.

In turn, `O=C1CCC(N2Cc3c(ccc4c3OCC43CCC4(CCNCC4)CC3)C2=O)C(=O)N1` (stereo not shown) [Compound D8] returned an IC50 at CRBN protein of 560 nM.

`O=C1CCC(N2Cc3c(ccc4c3OCC43CCC4(CC3)CNC4)C2=O)C(=O)N1` (stereo not shown) [Compound D9, 3-(6''-oxo-6''-,8''-dihydro-2''-H,7''-H-dipyrazolo[azetidin-3,1'-cyclohexane-4'-, 3"-furan[2,3-e]isoindole]-7"-yl)piperidine-2,6-dione]: at CRBN protein (setting [3]), the IC50 amounted to 650 nM.

Turning to `Cn1c(=O)n(C2CCC(=O)NC2=O)c2cc3c(cc21)C1(CCN(C2CC4(CCC(C#Cc5cc(-c6ccccc6O)nnc5N)CC4)C2)CC1)CO3` (stereo not shown) [SM-P-4, 3-(1'-(7-((3-amino-6-(2-hydroxyphenyl)pyridazin-4-yl)ethynyl)spiro[3.5]nonan-2-yl)-1-methyl-2-oxo-1,2-dihydro-3H,6H-spiro[benzofuro[5,6-d]imidazole-7,4'-piperidin]-3-yl)piperidine-2,6-dione], the “Degradation rate of SMARCA2 in HeLa cells (%)” value worked out at 100% at SMARCA2 [1] (1 nM) and 99% at SMARCA2 [1] (80 nM). Also, the “Degradation rate of SMARCA2 in SW1573 cells (%)” value on SMARCA2 [2] (1 nM) and on SMARCA2 [2] (80 nM) was 100% in each case.

For the compound `Nc1nnc(-c2ccccc2O)cc1C#CC1CCC2(CC1)CC(N1CCC3(CC1)COc1cc(C(=O)N[C@H]4CCC(=O)NC4=O)c(F)cc13)C2` (stereo partly shown) [SM-P-8], the “Degradation rate of SMARCA2 in HeLa cells (%)” value at SMARCA2 [1] (1 nM) stood at 28%; on SMARCA2 [1] (80 nM), 64%. In addition, the “Degradation rate of SMARCA2 in SW1573 cells (%)” value stood at 9% on SMARCA2 [2] (1 nM) and 61% on SMARCA2 [2] (80 nM).

Turning to `COc1cc2c(cc1C(=O)N[C@H]1CCC(=O)NC1=O)C1(CCN(C3CC4(CCC(C#Cc5cc(-c6ccccc6O)nnc5N)CC4)C3)CC1)CO2` (stereo partly drawn) [SM-P-14, (S)-1'-(7-((3-amino-6-(2-hydroxyphenyl)pyridazin-4-yl)ethynyl)spiro[3.5]nonan-2-yl)-N-(2,6-dioxopiperidin-3-yl)-6-methoxy-2H-spiro[benzofuran-3,4'-piperidin]-5-carboxamide], the “Degradation rate of SMARCA2 in HeLa cells (%)” value at SMARCA2 [1] (1 nM) is reported as -7%; on SMARCA2 [1] (80 nM), -3%. Besides, the “Degradation rate of SMARCA2 in SW1573 cells (%)” value on SMARCA2 [2] (1 nM) came out at 22%; at SMARCA2 [2] (80 nM) it was 14%.

For the compound `Nc1nnc(-c2ccccc2O)cc1C#CC1CCC2(CC1)CC(N1CCC3(CC1)COc1cc(F)c(C(=O)N[C@H]4CCC(=O)NC4=O)cc13)C2` (stereo partly shown) [SM-P-21], the “Degradation rate of SMARCA2 in HeLa cells (%)” value on SMARCA2 [1] (1 nM) amounted to 15%; at SMARCA2 [1] (80 nM), 4%. The “Degradation rate of SMARCA2 in SW1573 cells (%)” value on SMARCA2 [2] (1 nM) is -12%; on SMARCA2 [2] (80 nM), 14%.

Regarding `Cn1c(=O)n(C2CCC(=O)NC2=O)c2ccc3c(c21)OCC31CCN(C2CC3(CCC(C#Cc4cc(-c5ccccc5O)nnc4N)CC3)C2)CC1` (stereo not shown) [SM-P-26, 3-(1'-(7-((3-amino-6-(2-hydroxyphenyl)pyridazin-4-yl)ethynyl)spiro[3.5]nonan-2-yl)-1-methyl-2-oxo-1,2-dihydro-3H,7H-spiro[benzofuro[6,7-d]imidazole-6,4'-piperidin]-3-yl)piperidine-2,6-dione], the “Degradation rate of SMARCA2 in HeLa cells (%)” value is 100% at SMARCA2 [1] (1 nM) and 99% on SMARCA2 [1] (80 nM). Besides, the “Degradation rate of SMARCA2 in SW1573 cells (%)” value is given as 100% on SMARCA2 [2] (1 nM) and 99% at SMARCA2 [2] (80 nM).

`Cn1c(=O)n(C2CCC(=O)NC2=O)c2ccc3c(c21)OCC31CCN(C[C@H]2CC[C@H](Cn3cc(-c4cc(-c5ccccc5O)nnc4N)cn3)CC2)CC1` (stereo partly shown) [SM-P-29, 3-(1'-(((1r,4r)-4-((4-(3-amino-6-(2-hydroxyphenyl)pyridazin-4-yl)-1H-pyrazol-1-yl)methyl)cyclohexyl)methyl)-1-methyl-2-oxo-1,2-dihydro-3H,7H-spiro[benzofuro[6,7-d]imidazole-6,4'-piperidin]-3-yl)piperidine-2,6-dione]: the results for the “Degradation rate of SMARCA2 in HeLa cells (%)” value at SMARCA2 [1] (1 nM) and on SMARCA2 [1] (80 nM) were 100% and 90%, respectively. The “Degradation rate of SMARCA2 in SW1573 cells (%)” value is on record as 100% at SMARCA2 [2] (1 nM) and 99% on SMARCA2 [2] (80 nM).

For `Cn1c(=O)n(C2CCC(=O)NC2=O)c2ccc3c(c21)OCC31CCN(C2CN(c3cc(-c4ccccc4O)nnc3N)C2)CC1` (stereo not shown) [SM-P-37, 3-(1'-(1-(3-amino-6-(2-hydroxyphenyl)pyridazin-4-yl)azetidin-3-yl)-1-methyl-2-oxo-1,2-dihydro-3H,7H-spiro[benzofuro[6,7-d]imidazole-6,4'-piperidin]-3-yl)piperidine-2,6-dione], the “Degradation rate of SMARCA2 in HeLa cells (%)” value on SMARCA2 [1] (1 nM) worked out at 24%; on SMARCA2 [1] (80 nM) it was 33%.

As for “(R) -N-((S)-2,6-Dioxyhesperidin-3-yl)-9-methoxy-6-methyl-2,3,4,4a,5,6-hexahydro-1H-pyrazino[1,2-a]quinoline-8-carboxamide [Compound B12]”, the IC50 at CRBN protein (setting [3]) was 37300 nM.
